Laboratory results: US12139458B2, “(2,5-dioxopyrrolidin-1-yl)(phenyl)-acetamide derivatives and their use in the treatment of neurological diseases” (UNIWERSYTET JAGIELLONSKI, priority 2019, dated 2024)

How the values were obtained:
[1] = tested on: male white Swiss mice (CD-1); test: Oxaliplatin-induced neuropathy, Cold Plate test; type: in vivo; settings: OXPT-induced neuropathy, plate 2° C.
Experimental: Oxaliplatin (OXPT) was dissolved in a 5% glucose solution, followed by intraperitoneal administration to mice. A single dose of 10 mg/kg was used. Tactile and thermal (sensation of low temperature) allodynia associated with oxaliplatin-induced neuropathy are characterized by two phases. The early phase is acute and develops soon after administration of the OXPT, while the symptoms of the later (chronic) phase (associated with neurons damage), develops after a few days. Behavioral tests in mice with OXPT-induced neuropathy were carried out 7 days after its administration, i.e. in the late phase of neuropathy.
The effect of the test compound on thermal allodynia was evaluated in a Cold Plate test using specialized equipment—Cold/Hot Plate; Bioseb, France. The animals were placed individually on a metal plate cooled to 2° C. using the thermostated device. The observed nociceptive reactions of animals included licking and/or characteristic hind paw lift or bounce. The observation time was set at 60 s to eliminate the potential risk of tissue damage and minimize animal discomfort. Similar to the Von Frey test, the measurement was performed 3 times.
Compound 6 was administered at doses of 10, 20 and 30 mg/kg.

[2] = biological target: Potassium channel (hERG) (Homo sapiens, UniProt Q12809); test: Potassium channel (hERG) affinity study; type: binding; settings: 100 μM, human recombinant cells (HEK-293)
Sequence of Potassium channel (hERG) (Q12809 whole entry): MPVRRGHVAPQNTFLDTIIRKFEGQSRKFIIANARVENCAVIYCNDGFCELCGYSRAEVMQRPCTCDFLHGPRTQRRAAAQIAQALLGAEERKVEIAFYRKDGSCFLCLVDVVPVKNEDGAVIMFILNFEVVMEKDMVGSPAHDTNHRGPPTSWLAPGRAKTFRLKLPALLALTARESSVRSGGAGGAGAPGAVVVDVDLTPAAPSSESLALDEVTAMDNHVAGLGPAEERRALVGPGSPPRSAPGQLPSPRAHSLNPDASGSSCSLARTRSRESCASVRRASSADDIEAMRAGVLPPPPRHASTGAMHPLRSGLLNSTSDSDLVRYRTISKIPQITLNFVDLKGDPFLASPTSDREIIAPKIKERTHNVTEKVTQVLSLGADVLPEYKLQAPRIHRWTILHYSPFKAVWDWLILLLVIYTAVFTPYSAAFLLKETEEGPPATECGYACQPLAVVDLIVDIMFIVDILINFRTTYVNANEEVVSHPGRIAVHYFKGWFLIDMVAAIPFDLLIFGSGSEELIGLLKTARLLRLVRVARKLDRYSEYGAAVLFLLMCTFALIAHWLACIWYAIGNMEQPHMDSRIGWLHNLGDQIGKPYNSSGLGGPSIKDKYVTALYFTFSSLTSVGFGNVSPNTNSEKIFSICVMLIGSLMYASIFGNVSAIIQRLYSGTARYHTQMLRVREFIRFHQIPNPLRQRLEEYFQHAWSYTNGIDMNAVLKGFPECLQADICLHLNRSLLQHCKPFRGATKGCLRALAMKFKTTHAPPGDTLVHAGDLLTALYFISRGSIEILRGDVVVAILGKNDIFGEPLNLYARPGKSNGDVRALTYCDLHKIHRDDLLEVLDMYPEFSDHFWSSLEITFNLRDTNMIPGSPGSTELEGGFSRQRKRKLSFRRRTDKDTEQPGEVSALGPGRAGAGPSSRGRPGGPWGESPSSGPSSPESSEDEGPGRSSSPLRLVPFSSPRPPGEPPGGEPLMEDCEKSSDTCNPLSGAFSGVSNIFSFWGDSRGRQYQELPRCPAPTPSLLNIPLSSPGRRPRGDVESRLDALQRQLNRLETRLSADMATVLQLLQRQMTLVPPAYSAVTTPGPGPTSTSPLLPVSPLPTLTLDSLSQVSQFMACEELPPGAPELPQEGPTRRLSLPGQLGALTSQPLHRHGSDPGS

[3] = biological target: T1, CYP3A4 (Homo sapiens, UniProt P08684); test: CYP3A4 P450-Glo luminescence test; type: in vitro ADME
T1 construct: purchased Promega (Madison, WI, USA)
T1 sequence (P08684 whole entry): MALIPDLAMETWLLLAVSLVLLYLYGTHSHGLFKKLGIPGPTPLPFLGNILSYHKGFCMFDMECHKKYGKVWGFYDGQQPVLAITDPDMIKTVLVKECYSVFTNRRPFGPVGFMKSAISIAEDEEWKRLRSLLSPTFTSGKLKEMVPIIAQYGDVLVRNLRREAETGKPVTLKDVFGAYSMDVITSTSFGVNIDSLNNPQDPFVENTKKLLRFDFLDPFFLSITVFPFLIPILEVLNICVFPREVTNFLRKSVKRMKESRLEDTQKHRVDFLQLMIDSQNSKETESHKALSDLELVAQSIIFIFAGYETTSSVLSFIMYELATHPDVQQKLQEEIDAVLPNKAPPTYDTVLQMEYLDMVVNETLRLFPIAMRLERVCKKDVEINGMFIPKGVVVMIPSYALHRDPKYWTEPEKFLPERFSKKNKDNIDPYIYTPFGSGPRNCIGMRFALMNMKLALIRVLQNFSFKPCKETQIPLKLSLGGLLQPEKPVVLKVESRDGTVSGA
Experimental: Effect of compound 6 on cytochrome P-450 3A4 and 2D6 activity. The research was conducted using commercial luminescence tests CYP3A4 P450-Glo™ and CYP2D6 P450-Glo™ from Promega (Madison, WI, USA) based on the methodology described in the literature (Socała, K.; Mogilski, S.; Pieróg, M.; Nieoczym, D.; Abram, M.; Szulczyk, B.; Lubelska, A.; Latacz, G.; Doboszewska, U.; Wlaź, P.; Kamiński, K. ACS Chem. Neurosci. 2018, doi: 10.1021/acschemneuro.8b00476; Latacz, G.; Lubelska, A.; Jastrzȩbska-Wiȩek, M.; Partyka, A.; Sobato, A.; Olejarz, A.; Kucwaj-Brysz, K.; Satata, G.; Bojarski, A. J.; Wesołowska, A.; Kieć-Kononowicz, K.; Handzlik, J. Chem. Biol. Drug. Des. 2017, 90, 1295-1306). The CYP isoforms selected for study are responsible for the metabolism of approximately 40-50% of the drugs available on the market, and their stimulation or inhibition determines the majority of metabolic drug interactions. […] In summary, the results obtained indicate a low probability of potential metabolic interactions caused by 6.

[4] = tested on: HepG2 cells; test: In vitro hepatotoxicity, MTS cell viability assay; type: cell-based; settings: 100 μM, 72 h incubation, p<0.05
Experimental: In vitro hepatotoxicity assessment. The studies were conducted using the hepatoma HepG2 liver cancer cell line, which is used to assess the hepatotoxicity of the substance in vitro. A classic MTS colorimetric assay from Promega (Madison, WI, USA) was used to investigate the effect of 6 on HepG2 cell viability and proliferation. The compound was tested at four concentrations in the range (0.1-100 μM). Doxorubicin at a concentration of 1 μM was used as a reference cytostatic. In addition, the reference mitochondrial toxin carbonyl cyanide m-chlorophenylhydrazone (CCCP) at a concentration of 10 μM was also used (FIG. 10). […] In addition, cell viability was reduced to just 84% of the control, indicating a trace toxic effect of this compound on HepG2 cell lines. Due to the particular exposure of liver cells to the potential toxic effects of xenobiotics, an additional test was carried out with the HepG2 line in the form of luminescent measurement of ATP levels in cells, after a short 3-hour exposure to compound 6, in concentrations in the range of 1-100 μM. […]
In vitro hepatotoxicity assessment—methodology. […] Plates were again incubated for 2-3 hours, followed by absorbance measurement at 490 nm with an EnSpire PerkinElmer (Waltham, MA, USA) reader. Statistical significance was calculated by one-way ANOVA variance analysis and the Bonferroni method. […]

O=C(C(c1ccccc1)N1C(=O)CCC1=O)N1CCN(c2cccc(C(F)(F)F)c2)CC1 (racemic) [Compound 6, 1-(2-Oxo-1-phenyl-2-(4-(3-(trifluoromethyl)phenyl)piperazin-1-yl)ethyl)pyrrolidine-2,5-dione]
effect on thermal allodynia in the cold plate test [1]: significantly increased thermal allodynia sensitivity
Inhibition of specific control binding, Potassium channel (hERG) [2]: 25.8 (100) %
effect on CYP3A4 activity [3]: no effect
HepG2 cell viability, % of the control [4]: 84%
